ChEMBL document CHEMBL4196112, “Design of Selective sPLA2-X Inhibitor (-)-2-{2-[Carbamoyl-6-(trifluoromethoxy)-1H-indol-1-yl]pyridine-2-yl}propanoic Acid” (ACS Med Chem Lett, 2018)
In brackets after ≈: the same amount, converted by molar mass.

Experiments:
[1] = biological target: T1, Group 10 secretory phospholipase A2 (Homo sapiens, UniProt O15496); experiment: Inhibition of sPLA2-10 (unknown origin) using 1-palmitoyl-2-oleoyl-sn-glycero-3-phosphocholine as substrate pretreated for 20 mins followed by substrate addition and measured after 60 mins by NEFA based assay
T1 sequence (O15496 whole entry): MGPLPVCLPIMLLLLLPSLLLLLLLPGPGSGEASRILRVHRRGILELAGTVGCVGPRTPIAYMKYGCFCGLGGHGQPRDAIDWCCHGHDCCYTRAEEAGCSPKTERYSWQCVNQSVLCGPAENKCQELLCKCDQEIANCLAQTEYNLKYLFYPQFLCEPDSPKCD

[2] = biological target: T2, Phospholipase A2, membrane associated (Homo sapiens, UniProt P14555); experiment: Inhibition of sPLA2-2A (unknown origin) using 1-palmitoyl-2-oleoyl-sn-glycero-3-phosphocholine as substrate pretreated for 20 mins followed by substrate addition and measured after 60 mins by NEFA based assay
T2 sequence (P14555 whole entry): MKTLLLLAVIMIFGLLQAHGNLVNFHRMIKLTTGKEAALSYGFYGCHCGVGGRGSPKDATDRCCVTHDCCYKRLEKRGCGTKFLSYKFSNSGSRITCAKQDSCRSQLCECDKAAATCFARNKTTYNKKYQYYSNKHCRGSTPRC

Phospholipase A2 group V = biological target: T3, Phospholipase A2 group V (Homo sapiens, UniProt P39877); experiment: Inhibition of sPLA2-5 (unknown origin) using 1-palmitoyl-2-oleoyl-sn-glycero-3-phosphocholine as substrate pretreated for 20 mins followed by substrate addition and measured after 60 mins by NEFA based assay
T3 sequence (P39877 whole entry): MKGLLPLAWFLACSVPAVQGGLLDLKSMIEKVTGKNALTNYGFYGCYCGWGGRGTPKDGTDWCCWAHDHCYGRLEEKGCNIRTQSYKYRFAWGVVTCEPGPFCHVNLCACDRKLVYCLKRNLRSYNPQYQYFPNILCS

[3] = biological target: T1, Group 10 secretory phospholipase A2; experiment: Inhibition of recombinant human sPLA2-10 using human HDL as substrate pretreated for 20 mins followed by substrate addition and measured after 60 mins by NEFA based assay
[4] = Lipophilicity, log D of compound at pH 7.4; conditions: buffer
Mus musculus [5] = experiment: Unbound clearance in C57Bl/6J mouse administered iv or po; type: ADME, organism-based; conditions: in vivo
[6] = biological target: Group 10 secretory phospholipase A2 (Mus musculus, UniProt Q9QXX3); experiment: Inhibition of mouse sPLA2-10
[7] = Solubility of the compound in DMSO/HBSS solution at pH 7.4 after 24 hrs by LC-UV/MS analysis; type: physicochemical
[8] = Apparent permeability in human Caco2 cells; type: ADME, cell-based; conditions: Caco-2
[9] = biological target: Voltage-gated inwardly rectifying potassium channel KCNH2 (Homo sapiens, UniProt Q12809); experiment: Inhibition of human ERG expressed in CHO cells by ionworks patch clamp assay; type: cell-based
[10] = Half life in human hepatocytes; type: ADME, cell-based, Hepatocyte
[11] = biological target: Sodium channel protein type 5 subunit alpha (Homo sapiens, UniProt Q14524); experiment: Inhibition of human Nav1.5 expressed in CHO cells by ionworks patch clamp assay; type: cell-based
[12] = Inhibition of human Iks expressed in CHO cells by ionworks patch clamp assay; type: cell-based
[13] = biological target: A-type voltage-gated potassium channel KCND3 (Homo sapiens, UniProt Q9UK17); experiment: Inhibition of human Kv4.3 expressed in CHO cells by ionworks patch clamp assay; type: cell-based
A-type voltage-gated potassium channel KCND3, sequence (Q9UK17 whole entry): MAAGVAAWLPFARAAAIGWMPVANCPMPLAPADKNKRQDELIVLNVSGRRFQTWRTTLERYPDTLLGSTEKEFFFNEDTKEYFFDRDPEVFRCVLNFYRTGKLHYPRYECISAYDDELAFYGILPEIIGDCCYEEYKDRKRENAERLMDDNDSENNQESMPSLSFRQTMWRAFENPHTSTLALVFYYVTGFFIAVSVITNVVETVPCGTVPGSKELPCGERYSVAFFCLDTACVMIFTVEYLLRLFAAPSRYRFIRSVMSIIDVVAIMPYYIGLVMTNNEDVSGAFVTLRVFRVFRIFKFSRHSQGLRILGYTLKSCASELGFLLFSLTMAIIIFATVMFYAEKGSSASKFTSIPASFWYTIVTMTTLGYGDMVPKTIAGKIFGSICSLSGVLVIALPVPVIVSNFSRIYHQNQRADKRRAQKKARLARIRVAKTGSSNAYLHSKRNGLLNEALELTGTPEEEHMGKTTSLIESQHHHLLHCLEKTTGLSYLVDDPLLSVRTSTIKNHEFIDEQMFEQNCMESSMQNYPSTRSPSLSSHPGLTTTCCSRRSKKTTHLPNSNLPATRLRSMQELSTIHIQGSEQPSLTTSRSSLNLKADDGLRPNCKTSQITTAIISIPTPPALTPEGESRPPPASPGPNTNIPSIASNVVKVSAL

[14] = biological target: Voltage-dependent T-type calcium channel subunit alpha-1H (Homo sapiens, UniProt O95180); experiment: Inhibition of human Cav3.2 expressed in CHO cells by ionworks patch clamp assay; type: cell-based
Voltage-dependent T-type calcium channel subunit alpha-1H, sequence (O95180 whole entry): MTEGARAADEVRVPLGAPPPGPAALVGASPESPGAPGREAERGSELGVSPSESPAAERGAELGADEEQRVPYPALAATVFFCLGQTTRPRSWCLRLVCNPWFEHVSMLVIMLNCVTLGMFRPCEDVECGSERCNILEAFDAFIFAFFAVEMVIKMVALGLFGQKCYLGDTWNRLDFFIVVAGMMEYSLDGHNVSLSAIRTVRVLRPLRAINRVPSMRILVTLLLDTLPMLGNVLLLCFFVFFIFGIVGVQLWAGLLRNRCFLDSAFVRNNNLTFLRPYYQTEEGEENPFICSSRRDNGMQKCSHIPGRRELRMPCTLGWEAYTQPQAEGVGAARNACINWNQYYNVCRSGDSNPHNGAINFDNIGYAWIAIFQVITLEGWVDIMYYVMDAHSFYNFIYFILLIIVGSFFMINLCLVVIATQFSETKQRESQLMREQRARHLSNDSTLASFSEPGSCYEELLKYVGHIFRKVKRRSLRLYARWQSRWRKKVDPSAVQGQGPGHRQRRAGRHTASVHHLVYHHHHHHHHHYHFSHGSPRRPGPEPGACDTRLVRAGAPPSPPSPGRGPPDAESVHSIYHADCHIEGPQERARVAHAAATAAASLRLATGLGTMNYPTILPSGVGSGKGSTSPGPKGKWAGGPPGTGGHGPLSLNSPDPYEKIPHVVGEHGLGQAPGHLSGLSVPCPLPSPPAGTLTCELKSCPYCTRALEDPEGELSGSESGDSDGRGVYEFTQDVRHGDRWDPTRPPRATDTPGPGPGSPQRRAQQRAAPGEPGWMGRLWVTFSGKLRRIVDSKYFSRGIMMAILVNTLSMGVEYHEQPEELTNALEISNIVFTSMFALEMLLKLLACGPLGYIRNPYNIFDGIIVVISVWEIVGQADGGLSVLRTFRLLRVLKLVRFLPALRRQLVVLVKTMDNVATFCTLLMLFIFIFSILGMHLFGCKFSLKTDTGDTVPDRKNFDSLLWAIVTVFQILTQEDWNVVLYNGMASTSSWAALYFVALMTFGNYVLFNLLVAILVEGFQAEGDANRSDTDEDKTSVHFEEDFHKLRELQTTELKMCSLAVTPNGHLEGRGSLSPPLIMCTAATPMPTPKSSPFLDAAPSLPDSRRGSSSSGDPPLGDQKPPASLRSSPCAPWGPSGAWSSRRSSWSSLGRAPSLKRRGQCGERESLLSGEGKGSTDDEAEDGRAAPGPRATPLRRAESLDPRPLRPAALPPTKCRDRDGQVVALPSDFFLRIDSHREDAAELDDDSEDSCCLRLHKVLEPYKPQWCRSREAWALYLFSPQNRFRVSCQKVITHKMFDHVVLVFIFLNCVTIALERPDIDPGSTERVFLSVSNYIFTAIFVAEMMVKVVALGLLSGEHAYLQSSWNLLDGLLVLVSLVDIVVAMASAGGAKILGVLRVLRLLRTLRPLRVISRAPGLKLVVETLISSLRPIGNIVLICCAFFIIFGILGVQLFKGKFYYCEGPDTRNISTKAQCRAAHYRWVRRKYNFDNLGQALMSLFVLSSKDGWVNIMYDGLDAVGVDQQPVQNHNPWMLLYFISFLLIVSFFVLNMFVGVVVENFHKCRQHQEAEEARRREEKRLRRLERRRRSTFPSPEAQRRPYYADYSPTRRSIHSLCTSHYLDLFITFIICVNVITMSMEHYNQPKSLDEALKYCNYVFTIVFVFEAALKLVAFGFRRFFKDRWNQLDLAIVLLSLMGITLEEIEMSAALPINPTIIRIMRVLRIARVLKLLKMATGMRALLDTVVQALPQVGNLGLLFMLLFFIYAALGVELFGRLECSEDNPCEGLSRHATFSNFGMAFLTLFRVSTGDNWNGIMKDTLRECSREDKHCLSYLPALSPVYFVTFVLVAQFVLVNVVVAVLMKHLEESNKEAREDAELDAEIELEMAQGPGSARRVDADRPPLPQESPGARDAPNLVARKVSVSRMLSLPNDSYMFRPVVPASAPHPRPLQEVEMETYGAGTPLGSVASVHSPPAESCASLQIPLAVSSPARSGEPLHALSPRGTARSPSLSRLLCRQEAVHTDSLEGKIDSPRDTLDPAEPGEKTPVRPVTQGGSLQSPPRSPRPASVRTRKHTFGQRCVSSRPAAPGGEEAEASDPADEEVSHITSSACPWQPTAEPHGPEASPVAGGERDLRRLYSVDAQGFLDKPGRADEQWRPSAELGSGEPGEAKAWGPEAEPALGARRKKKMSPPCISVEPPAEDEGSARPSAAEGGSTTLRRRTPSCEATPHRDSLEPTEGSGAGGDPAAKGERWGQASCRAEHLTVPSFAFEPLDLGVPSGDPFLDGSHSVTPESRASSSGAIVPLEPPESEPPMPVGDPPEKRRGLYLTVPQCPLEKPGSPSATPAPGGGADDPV

[15] = biological target: Voltage-dependent L-type calcium channel subunit alpha-1C (Homo sapiens, UniProt Q13936); experiment: Inhibition of human Cav1.2 expressed in CHO cells by ionworks patch clamp assay; type: cell-based
[16] = Drug metabolism in human liver microsomes in presence of glutathione after 30 mins; type: ADME, microsome; conditions: 0.5 h
Cytochrome P450 3A4 = Cytochrome P450 3A4 (Homo sapiens, UniProt P08684); experiment: Inhibition of recombinant human CYP3A4; type: ADME
Cytochrome P450 3A4, sequence (P08684 whole entry): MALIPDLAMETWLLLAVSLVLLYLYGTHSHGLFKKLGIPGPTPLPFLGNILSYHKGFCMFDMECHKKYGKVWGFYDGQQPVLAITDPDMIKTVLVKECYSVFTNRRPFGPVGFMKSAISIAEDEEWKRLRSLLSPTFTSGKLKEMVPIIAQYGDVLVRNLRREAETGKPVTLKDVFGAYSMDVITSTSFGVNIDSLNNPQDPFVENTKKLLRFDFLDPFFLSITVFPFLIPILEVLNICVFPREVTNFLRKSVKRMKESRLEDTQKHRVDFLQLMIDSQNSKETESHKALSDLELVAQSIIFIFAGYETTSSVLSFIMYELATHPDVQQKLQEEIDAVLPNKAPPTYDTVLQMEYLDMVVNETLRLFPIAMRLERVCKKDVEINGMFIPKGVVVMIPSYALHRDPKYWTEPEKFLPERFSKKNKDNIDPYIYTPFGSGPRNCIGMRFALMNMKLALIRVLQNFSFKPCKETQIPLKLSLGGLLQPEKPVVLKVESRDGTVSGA

Cytochrome P450 2C9 = Cytochrome P450 2C9 (Homo sapiens, UniProt P11712); experiment: Inhibition of recombinant human CYP2C9; type: ADME
Cytochrome P450 2C19 = Cytochrome P450 2C19 (Homo sapiens, UniProt P33261); experiment: Inhibition of recombinant human CYP2C19; type: ADME
Cytochrome P450 2C19, sequence (P33261 whole entry): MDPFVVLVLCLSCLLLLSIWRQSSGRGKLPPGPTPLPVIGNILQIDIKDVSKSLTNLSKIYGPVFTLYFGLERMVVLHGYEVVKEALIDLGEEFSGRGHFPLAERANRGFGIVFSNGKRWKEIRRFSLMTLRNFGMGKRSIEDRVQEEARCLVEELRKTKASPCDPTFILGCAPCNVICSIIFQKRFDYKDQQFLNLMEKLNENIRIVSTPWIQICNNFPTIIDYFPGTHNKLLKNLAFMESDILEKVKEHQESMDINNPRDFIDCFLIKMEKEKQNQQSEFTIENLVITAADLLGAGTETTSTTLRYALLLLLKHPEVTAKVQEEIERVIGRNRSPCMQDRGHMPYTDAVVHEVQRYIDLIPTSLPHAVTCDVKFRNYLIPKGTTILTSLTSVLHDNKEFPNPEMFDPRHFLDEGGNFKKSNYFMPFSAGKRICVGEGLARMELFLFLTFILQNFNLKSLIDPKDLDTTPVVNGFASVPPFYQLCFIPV

Cytochrome P450 2D6 = Cytochrome P450 2D6 (Homo sapiens, UniProt P10635); experiment: Inhibition of recombinant human CYP2D6; type: ADME
Cytochrome P450 2D6, sequence (P10635 whole entry): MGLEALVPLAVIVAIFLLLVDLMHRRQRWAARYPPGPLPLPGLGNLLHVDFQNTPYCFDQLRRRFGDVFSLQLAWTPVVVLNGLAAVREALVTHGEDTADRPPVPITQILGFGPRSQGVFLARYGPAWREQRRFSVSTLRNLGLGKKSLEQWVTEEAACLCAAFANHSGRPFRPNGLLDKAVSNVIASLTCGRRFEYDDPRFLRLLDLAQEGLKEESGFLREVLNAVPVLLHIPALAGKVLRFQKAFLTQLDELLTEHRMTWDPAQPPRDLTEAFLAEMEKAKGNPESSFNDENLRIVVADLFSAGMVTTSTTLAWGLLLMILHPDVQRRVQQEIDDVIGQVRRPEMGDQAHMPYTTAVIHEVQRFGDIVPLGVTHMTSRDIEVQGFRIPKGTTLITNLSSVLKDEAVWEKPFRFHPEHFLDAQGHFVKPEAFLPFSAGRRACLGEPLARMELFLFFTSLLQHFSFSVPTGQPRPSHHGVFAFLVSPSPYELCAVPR

Cytochrome P450 1A2 = Cytochrome P450 1A2 (Homo sapiens, UniProt P05177); experiment: Inhibition of recombinant human CYP1A2; type: ADME
Cytochrome P450 1A2, sequence (P05177 whole entry): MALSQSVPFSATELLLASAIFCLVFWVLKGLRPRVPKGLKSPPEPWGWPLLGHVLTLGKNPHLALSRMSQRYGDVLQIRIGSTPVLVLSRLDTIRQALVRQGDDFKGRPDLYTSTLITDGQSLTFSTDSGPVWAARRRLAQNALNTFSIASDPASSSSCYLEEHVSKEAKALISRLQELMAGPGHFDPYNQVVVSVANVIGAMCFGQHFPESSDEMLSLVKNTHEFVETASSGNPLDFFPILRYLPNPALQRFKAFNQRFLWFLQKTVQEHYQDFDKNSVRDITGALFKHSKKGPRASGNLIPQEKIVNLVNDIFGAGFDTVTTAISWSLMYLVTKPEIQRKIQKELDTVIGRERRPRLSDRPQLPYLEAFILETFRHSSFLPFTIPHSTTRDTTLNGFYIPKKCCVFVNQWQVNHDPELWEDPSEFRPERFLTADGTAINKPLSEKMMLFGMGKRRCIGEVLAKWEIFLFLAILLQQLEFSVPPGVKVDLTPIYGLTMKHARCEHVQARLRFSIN

Cytochrome P450 2C8 = Cytochrome P450 2C8 (Homo sapiens, UniProt P10632); experiment: Inhibition of recombinant human CYP2C8; type: ADME
[17] = Fraction unbound in C57Bl/6J mouse plasma; type: ADME, cell-free
Mus musculus [18] = experiment: Unbound clearance in C57Bl/6J mouse at 10 umol/kg, iv or 50 umol/kg, po; type: ADME, organism-based; conditions: in vivo
[19] = Oral bioavailability in C57Bl/6J mouse at 50 umol/kg; type: ADME, organism-based; conditions: in vivo
[20] = Volume of distribution at steady state in C57Bl/6J mouse at 10 umol/kg, iv or 50 umol/kg, po; type: ADME, organism-based; conditions: in vivo, read-out: Vdss
Mus musculus [21] = experiment: Toxicity in ApoE knockout pro-atherogenic western diet-induced Tac mouse carotid artery ligation model of atherosclerosis assessed as reduction in body weight at 75 to 150 umol/kg/day mixed with food measured for 3 weeks; type: organism-based; conditions: in vivo, po, 504 h
Mus musculus [22] = experiment: Toxicity in ApoE knockout pro-atherogenic western diet-induced Tac mouse carotid artery ligation model of atherosclerosis assessed as effect on liver enzyme levels at 75 to 150 umol/kg/day mixed with food measured for 3 weeks; type: organism-based; conditions: in vivo, po, 504 h
Mus musculus [23] = experiment: Toxicity in ApoE knockout pro-atherogenic western diet-induced Tac mouse carotid artery ligation model of atherosclerosis assessed as histopathological changes in liver at 75 to 150 umol/kg/day mixed with food measured for 3 weeks by hematoxylin-eosin staining based assay; type: organism-based; conditions: in vivo, po, 504 h
Mus musculus [24] = experiment: Toxicity in ApoE knockout pro-atherogenic western diet-induced Tac mouse carotid artery ligation model of atherosclerosis assessed as histopathological changes in kidney at 75 to 150 umol/kg/day mixed with food measured for 3 weeks by hematoxylin-eosin staining based assay; type: organism-based; conditions: in vivo, po, 504 h
Mus musculus [25] = experiment: Toxicity in ApoE knockout pro-atherogenic western diet-induced Tac mouse carotid artery ligation model of atherosclerosis assessed as histopathological changes in heart at 75 to 150 umol/kg/day mixed with food measured for 3 weeks by hematoxylin-eosin staining based assay; type: organism-based; conditions: in vivo, po, 504 h
Mus musculus [26] = experiment: Toxicity in ApoE knockout pro-atherogenic western diet-induced Tac mouse carotid artery ligation model of atherosclerosis assessed as histopathological changes in intestine at 75 to 150 umol/kg/day mixed with food measured for 3 weeks by hematoxylin-eosin staining based assay; type: organism-based; conditions: in vivo, po, 504 h
Mus musculus [27] = experiment: Toxicity in ApoE knockout pro-atherogenic western diet-induced Tac mouse carotid artery ligation model of atherosclerosis assessed as histopathological changes in lung at 75 to 150 umol/kg/day mixed with food measured for 3 weeks by hematoxylin-eosin staining based assay; type: organism-based; conditions: in vivo, po, 504 h
Mus musculus [28] = experiment: Toxicity in ApoE knockout pro-atherogenic western diet-induced Tac mouse carotid artery ligation model of atherosclerosis assessed as histopathological changes in stomach at 75 to 150 umol/kg/day mixed with food measured for 3 weeks by hematoxylin-eosin staining based assay; type: organism-based; conditions: in vivo, po, 504 h
Mus musculus [29] = experiment: Toxicity in ApoE knockout pro-atherogenic western diet-induced Tac mouse carotid artery ligation model of atherosclerosis assessed as histopathological changes in duodenum at 75 to 150 umol/kg/day mixed with food measured for 3 weeks by hematoxylin-eosin staining based assay; type: organism-based; conditions: in vivo, po, 504 h
Mus musculus [30] = experiment: Toxicity in ApoE knockout pro-atherogenic western diet-induced Tac mouse carotid artery ligation model of atherosclerosis assessed as histopathological changes in ceacum at 75 to 150 umol/kg/day mixed with food measured for 3 weeks by hematoxylin-eosin staining based assay; type: organism-based; conditions: in vivo, po, 504 h
[31] = Ratio of free drug level in ApoE knockout pro-atherogenic western diet-induced Tac mouse at 75 umol/kg measured after 3 weeks to IC50 for recombinant human sPLA2-10 using human HDL as substrate; type: ADME; conditions: in vivo, 504 h
[32] = Ratio of free drug level in ApoE knockout pro-atherogenic western diet-induced Tac mouse at 75 umol/kg measured after 1 week to IC50 for recombinant human sPLA2-10 using human HDL as substrate; type: ADME; conditions: in vivo, 168 h
[33] = Ratio of free drug level in ApoE knockout pro-atherogenic western diet-induced Tac mouse at 150 umol/kg measured after 1 week to IC90 for recombinant human sPLA2-10 using human HDL as substrate; type: ADME; conditions: in vivo, 168 h
[34] = Ratio of free drug level in ApoE knockout pro-atherogenic western diet-induced Tac mouse at 150 umol/kg measured after 3 weeks to IC90 for recombinant human sPLA2-10 using human HDL as substrate; type: ADME; conditions: in vivo, 504 h

## CC(CC(=O)O)c1cccc(-n2c(C(N)=O)cc3ccc(OC(F)(F)F)cc32)n1 (stereo in doubt; (-)-17)
[1]
  IC50: 0.014 µM
[2]
  IC50: 0.63 µM
Phospholipase A2 group V
  IC50: 5.5 µM
[3]
  IC50: 0.042 µM
[4]
  logD: 0.9
Mus musculus [5]
  CL free: 306 mL/min/kg
[6]
  IC50: 0.075 µM
[7]
  solubility at 24 h: 100 µM (≈ 40.7 µg/mL)
[8]
  Papp: 5.8 ×10⁻⁶ cm/s
[9]
  IC50: > 33 µM
[10]
  half-life: > 2.88 h
[11]
  IC50: > 33 µM
[12]
  IC50: > 33 µM
[13]
  IC50: > 33 µM
[14]
  IC50: > 33 µM
[15]
  IC50: > 33 µM
[16]
  Drug metabolism: Metabolite_Notdetected
Cytochrome P450 3A4
  IC50: > 20 µM
Cytochrome P450 2C9
  IC50: > 20 µM
Cytochrome P450 2C19
  IC50: > 20 µM
Cytochrome P450 2D6
  IC50: > 20 µM
Cytochrome P450 1A2
  IC50: > 20 µM
Cytochrome P450 2C8
  IC50: > 20 µM
[17]
  fraction unbound: 0.05
Mus musculus [18]
  CL free: 306 mL/min/kg
[19]
  bioavailability: 95%
[20]
  Vd: 0.52 L/kg
Mus musculus [21]
  Activity: Non-Toxic
Mus musculus [22]
  Activity: Non-Toxic
Mus musculus [23]
  Activity: Non-Toxic
Mus musculus [24]
  Activity: Non-Toxic
Mus musculus [25]
  Activity: Non-Toxic
Mus musculus [26]
  Activity: Non-Toxic
Mus musculus [27]
  Activity: Non-Toxic
Mus musculus [28]
  Activity: Non-Toxic
Mus musculus [29]
  Activity: Non-Toxic
Mus musculus [30]
  Activity: Non-Toxic
[31]
  Ratio: > 7
[32]
  Ratio: > 7
[33]
  Ratio: > 7
[34]
  Ratio: > 7
